The text below walks through data of patent US4029671A, “3-[(5-nitro-2-imidazolyl)pyrazol-5-yl]oxamic acid derivatives” (priority 1976, dated 1977).

Assay in all cases: Agar dilution susceptibility of anaerobic bacteria (Chart 1)
Holding throughout (assay type): cell-based
In general terms: In agar dilution the substance is mixed into plates at graded concentrations.

Assay [1] has as its system Bacteroides fragilis sp. fragilis 107. As to conditions: Bacteroides fragilis, 24 h, agar dilution, 37° C.; Bacteroides fragilis sp. fragilis 107; read-out: 24 Hr. MIC.
In assay [2] the test system is Bacteroides fragilis sp. fragilis 111. As to conditions: agar dilution, 37° C., Bacteroides fragilis sp. fragilis 111; for MIC: Bacteroides fragilis, 24 h, read-out: 24 Hr. MIC.
Assay [3] relates to Bacteroides fragilis sp. fragilis 108. The conditions noted are these: agar dilution, 37° C., Bacteroides fragilis sp. fragilis 108; for MIC: Bacteroides fragilis, 24 h, read-out: 24 Hr. MIC.
Assay [4] relates to Bacteroides fragilis sp. fragilis 1877. The conditions noted are these: agar dilution, 37° C., Bacteroides fragilis sp. fragilis 1877; for MIC: Bacteroides fragilis, 24 h, read-out: 24 Hr. MIC.
The subject of assay [5] is Peptostreptococcus intermedius 1264. The conditions noted are these: agar dilution, 37° C., Peptostreptococcus intermedius 1264; for MIC: Peptostreptococcus, 1264, 24 h, read-out: 24 Hr. MIC.
The test system of assay [6] is Clostridium septicum 1128. As to conditions: 37° C.; for MIC: Clostridium septicum, 1128, 24 h. As for the experimental part:
The susceptibility of anaerobic bacteria, both gram positive and gram negative, to a representative number of the novel compounds of this application was determined using the agar dilution method. The bacteria used were isolated from patients hospitalized at the Indiana Univerisity Medical Center. The isolates were identified in the anaerobe laboratory of the Medical Center by the criteria established by Dowell et al., Laboratory Methods in Anaerobic Bacteriology. Public Health Serv. Publ. NO. 1803 (1968) [Center for Disease Control, Atlanta, Ga.]; and by Smith et al., The Pathogenic Anaerobic Bacteria, pages 96- 136 (1968) [Charles C. Thomas, Publisher, Springfield, Ill.]. All the organisms were maintained in chopped meat glucose medium (Scott Labs) at room temperature.
The method used for the agar dilution tests was based on the studies of Sutter et al., Antimicrob. Ag. Chemother. 3, 188-193 (1973). The strains of anaerobic bacteria were grown in 16×× 120 mm. tubes for 16 to 18 hours in Thioglycolate medium without indicator-- 135C (Becton, Dickinson and Co.), to which was added 5 mcg. of hemin per milliliter prior to autoclaving, plus 1 mg. of sodium bicarbonate and 0.1 mcg. of filter-sterilized menadione per milliliter after autoclaving. The strains were adjusted to the turbidity of the No. 1 McFarland standard in Thioglycolate medium without indicator-- 135C containing an additional 0.13 percent Bacto-agar (Difco). Each strain was then applied to the surface of the petri plate (100 mm× 15 mm.) by means of a replicator.
For the agar dilution studies, two-fold dilutions of the test compounds were prepared in deionized water to which was then added laked sheep blood and filter-sterilized menadione so the concentrations after the agar dilution were 5 percent and 10 mcg./ml. respectively. An equal volume of double strength Brucella agar (Becton, Dickinson and Co.) was mixed with each dilution in a water bath held at 50° C. and then poured onto the petri dishes.
All of the procedures were done inside a plastic glove box, except for the incubation of the growth tubes and the pouring of the plates. After the plates hardened, they were put inside the glove box for a minimum of 2 hours before they were inoculated. Generally, the glove box procedures of Aranki et al., Applied Microbiology 17, 568-576 (1969), were followed, but the following modifications were used. Dry materials were introduced into the glove box by evacuating the lock to 28 inches of mercury and filling once with nitrogen gas, followed by evacuating in the same manner and filling with an 80 percent nitrogen plus 10 percent CO2 plus 10 percent hydrogen gas mixture. Liquid media and agar plates were introduced into the glove box by evacuating the lock to 10 inches of mercury and filling with gas four times. The nitrogen gas was used to fill the lock for the first two cycles of evacuation, with the gas mixture described above used for the final two fillings.
All the plates were incubated at 37° C. in Gas Pak jars (Becton, Dickinson and Co.) containing palladium-coated alumina catalysts (reactivated after each use). The results of the agar dilution tests were read after about 24 hours of incubation. The minimum inhibitory concentration (MIC) was recorded as the lowest concentration of test compound at which there was no growth.
The test compounds are identified by the number of the example describing their preparation. The antibiotics clindamycin (C), and erythromycin (E) were also run simultaneously with the novel compounds of this application,for comparison purposes, and the results are included in Chart 1 below.

Assay [7] relates to Bacteroides fragilis sp. fragilis 104. The conditions noted are these: 24 h; agar dilution, 37° C.; Bacteroides fragilis sp. fragilis 104; read-out: 24 Hr. MIC.
The subject of assay [8] is Bacteroides fragilis sp. fragilis 1470. As to conditions: agar dilution, 37° C., Bacteroides fragilis sp. fragilis 1470; for MIC: Bacteroides fragilis, 24 h, read-out: 24 Hr. MIC.
In the next assay the test system is Peptococcus prevoti 1281. As to conditions: for MIC: 24 h, read-out: 24 Hr. MIC, agar dilution, 37° C.; for 24 Hr. MIC: agar dilution, 37° C.
Assay [9] deals with Bacteroides fragilis sp. thetaiotaomicron 1900A. The conditions noted are these: agar dilution, 37° C., Bacteroides fragilis sp. thetaiotaomicron 1900A; for MIC: Bacteroides fragilis, 24 h, read-out: 24 Hr. MIC.

The structures appear in SMILES notation. Values after ≈ are worked out from the molar mass of the structure shown. Structures can show the parent of a compound that is named as a salt.

Regarding `CCC[C@@H]1C[C@@H](C(=O)N[C@@H]([C@H]2O[C@H](SC)[C@H](O)[C@@H](O)[C@H]2O)[C@H](C)Cl)N(C)C1` [C, clindamycin, reference compound], the MIC in [1] came to 0.25 µg/mL (≈ 0.588 µM); in assay [2] it was 1 µg/mL (≈ 2.35 µM); in [3], 0.125 µg/mL (≈ 0.294 µM); in assay [4], 0.25 µg/mL (≈ 0.588 µM); in assay [5], 1 µg/mL (≈ 2.35 µM); in [6] it was 8 µg/mL (≈ 18.8 µM). The MIC was found to be 0.125 µg/mL (≈ 0.294 µM) in assay [7], 0.25 µg/mL (≈ 0.588 µM) in [8], 32 µg/mL (≈ 75.3 µM) with Peptococcus prevoti 1281 and 4 µg/mL (≈ 9.41 µM) in assay [9].

In the case of `CCOC(=O)C(=O)Nc1c(C#N)c(-c2ncc([N+](=O)[O-])n2C)nn1C` [Example 1, N-[4-Cyano-1-methyl-3-(1-methyl-5-nitroimidazol-2-yl)pyrazol-5-yl]oxamic acid, ethyl ester], the MIC was 0.25 µg/mL (≈ 0.72 µM) in assay [1]; 0.125 µg/mL (≈ 0.36 µM) in assay [2]; 0.125 µg/mL (≈ 0.36 µM) in [3]; 0.25 µg/mL (≈ 0.72 µM) in assay [4]; 0.25 µg/mL (≈ 0.72 µM) in assay [7]; 0.125 µg/mL (≈ 0.36 µM) in [8]. Also, the MIC in the assay with Peptococcus prevoti 1281 was at most 0.25 µg/mL; in assay [9], 0.25 µg/mL (≈ 0.72 µM). Also, the “24 Hr. MIC” value in assay [5] is 16 µg/mL; in [6] it was above 128 µg/mL.

Take `CCOC(=O)C(=O)Nc1c(C#N)c(-c2ncc([N+](=O)[O-])n2C)nn1C` [Example 2, N-[4-Cyano-1-methyl-3-(1-methyl-5-nitroimidazol-2-yl)pyrazol-5-yl]oxamic acid, ethyl ester, sodium salt]: the “24 Hr. MIC” value in [2] (sodium salt) is 0.25 µg/mL; in assay [3] (sodium salt), 0.25 µg/mL; in assay [4] (sodium salt) it was 0.5 µg/mL; in [5] (sodium salt), above 64 µg/mL; in assay [6] (sodium salt), above 64 µg/mL; in assay [8] (sodium salt), 0.25 µg/mL. Moreover, the “24 Hr. MIC” value in the assay on Peptococcus prevoti 1281 (sodium salt) turned out to be 0.5 µg/mL; in assay [9] (sodium salt), 0.25 µg/mL.

`Cn1nc(-c2ncc([N+](=O)[O-])n2C)c(C#N)c1NC(=O)C(=O)NN` [Example 6, 5-[4-Cyano-1-methyl-3-(1-methyl-5-nitroimidazol-2-yl)pyrazol5-yl]semioxamazide]: the MIC in assay [1] was 0.5 µg/mL (≈ 1.5 µM); in [2], 0.25 µg/mL (≈ 0.75 µM); in [3] it was 0.5 µg/mL (≈ 1.5 µM); in [4] it was 0.5 µg/mL (≈ 1.5 µM); in assay [5] it was 32 µg/mL (≈ 96 µM); in assay [6], above 128 µg/mL. In addition, the minimal inhibitory concentration (MIC) in assay [7], in [8] and in [9] was 0.25 µg/mL (≈ 0.75 µM) each time. For the same compound, in the assay on Peptococcus prevoti 1281, the “24 Hr. MIC” value stood at 0.5 µg/mL.

As to `Cn1nc(-c2ncc([N+](=O)[O-])n2C)c(C#N)c1NC(=O)C(=O)c1ccccc1` [Example 10, N-[4-cyano-1-methyl-3-(1-methyl-5-nitroimidazol-2-yl)pyrazol-5-yl]-2-phenylglyoxylamide], the MIC in assay [1] is at most 0.03 µg/mL; in assay [2], at most 0.03 µg/mL; in assay [3], at most 0.03 µg/mL; in [4], at most 0.03 µg/mL; in [5], 64 µg/mL (≈ 169 µM); in assay [7], at most 0.03 µg/mL. In addition, in assay [8], the MIC is at most 0.03 µg/mL. The figures for the “24 Hr. MIC” value (in [6]; in the assay on Peptococcus prevoti 1281; in assay [9]) were 1.0 µg/mL, 16 µg/mL and at most 0.03 µg/mL, respectively.

As a reminder, the MIC is the smallest concentration in the dilution series that meets the test's criterion for growth inhibition.
